Where two headings read alike, the source gives them in different places.
Molecular target: T1, hGalectin-3 (Homo sapiens, UniProt P17931)
T1 construct: made in house
Assay: Gal-3 ELISA assay (hGalectin-3 neutralization binding to asialofetuin)

[1] = biotin-tagged hGalectin-3 15 nM, ASF-coated plate, read-out: hGal3 IC50

T1 sequence (P17931 whole entry): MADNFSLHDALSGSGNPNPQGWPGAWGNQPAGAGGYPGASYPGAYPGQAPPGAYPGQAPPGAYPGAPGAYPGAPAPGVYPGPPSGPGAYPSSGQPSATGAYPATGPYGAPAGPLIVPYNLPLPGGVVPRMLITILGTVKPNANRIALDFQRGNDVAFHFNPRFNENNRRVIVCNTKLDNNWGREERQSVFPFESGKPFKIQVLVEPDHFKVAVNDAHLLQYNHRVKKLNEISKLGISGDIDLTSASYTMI

For O=C([C@@H]1O[C@H](CO)[C@H](O)[C@H](n2cc(-c3cccc(F)c3)nn2)[C@H]1O)N1C[C@@H]2C[C@H]1CN2c1ccc2[nH]ccc2c1 [Example 26, ((1S,4S)-5-(1H-indol-5-yl)-2,5-diazabicyclo[2.2.1]heptan-2-yl)((2R,3R,4S,5R,6R)-4-(4-(3-fluorophenyl)-1H-1,2,3-triazol-1-yl)-3,5-dihydroxy-6-(hydroxymethyl)tetrahydro-2H-pyran-2-yl)methanone], the IC50 [1] was 300 nM.
With O=C([C@@H]1O[C@H](CO)[C@H](O)[C@H](n2cc(-c3cccc(F)c3)nn2)[C@H]1O)N1CCN(c2ncc(O)cn2)CC1 [Example 4] the IC50 (Table 1, read-out: hGal-3 IC50) was 850 nM.
COC(=O)Nc1ccc(N2C[C@@H]3C[C@H]2CN3C(=O)[C@@H]2O[C@H](CO)[C@H](O)[C@H](n3cc(-c4cccc(F)c4)nn3)[C@H]2O)cc1 [Example 23, methyl (4-((1S,4S)-5-((2R,3R,4S,5R,6R)-4-(4-(3-fluorophenyl)-1H-1,2,3-triazol-1-yl)-3,5-dihydroxy-6-(hydroxymethyl)tetrahydro-2H-pyran-2-carbonyl)-2,5-diazabicyclo[2.2.1]heptan-2-yl)phenyl)carbamate] gave an IC50 [1] of 590 nM.
Work on O=C(Nc1ccc(O)cc1)N1C[C@@H]2C[C@H]1CN2C(=O)[C@@H]1O[C@H](CO)[C@H](O)[C@H](n2cc(-c3cccc(F)c3)nn2)[C@H]1O [Example 30, (1S, 4S)-5-((2R, 3R, 4S, 5R, 6R)-4-(4-(3-fluorophenyl)-1H-1,2,3-triazol-1-yl)-3,5-dihydroxy-6-(hydroxymethyl)tetrahydro-2H-pyran-2-carbonyl)-N-(4-hydroxyphenyl)-2,5-diazabicyclo[2.2.1]heptane-2-carboxamide] yielded an IC50 [1] of 500 nM.
With COc1ccc(OC)c(N2CC3CC2CN3C(=O)C2OC(CO)C(O)C(n3cc(-c4cccc(F)c4)nn3)C2O)c1 (stereo not drawn) [Example 21] the IC50 (Table 3, read-out: hGal-3 IC50) was 962 nM.
In the case of O=C([C@@H]1O[C@H](CO)[C@H](O)[C@H](n2cc(-c3cccc(F)c3)nn2)[C@H]1O)N1CCN(c2ccc(O)cc2)CC1CO (single isomer, unassigned) [Example 34a], the IC50 [1] is reported as 1300 nM.
O=C([C@@H]1O[C@H](CO)[C@H](O)[C@H](n2cc(-c3cccc(F)c3)nn2)[C@H]1O)N1C[C@@H]2C[C@H]1CN2c1ccc(O)cc1 [Example 25, ((2R,3R,4S,5R,6R)-4-(4-(3-fluorophenyl)-1H-1,2,3-triazol-1-yl)-3,5-dihydroxy-6-(hydroxymethyl)tetrahydro-2H-pyran-2-yl)((1S,4S)-5-(4-hydroxyphenyl)-2,5-diazabicyclo[2.2.1]heptan-2-yl)methanone] gave an IC50 [1] of 900 nM.
For O=C([C@@H]1O[C@H](CO)[C@H](O)[C@H](n2cc(-c3cccc(F)c3)nn2)[C@H]1O)N1CCN(c2ccc3[nH]c(=O)[nH]c3c2)CC1 [Example 9, 5-(4-((2R,3R,4S,5R,6R)-4-(4-(3-fluorophenyl)-1H-1,2,3-triazol-1-yl)-3,5-dihydroxy-6-(hydroxymethyl)tetrahydro-2H-pyran-2-carbonyl)piperazin-1-yl)-1H-benzo[d]imidazol-2(3H)-one], the IC50 [1] was 390 nM.
Cc1ccc(N2C[C@H]3CN(C(=O)[C@@H]4O[C@H](CO)[C@H](O)[C@H](n5cc(-c6cccc(F)c6)nn5)[C@H]4O)C[C@H]3C2)cc1 [Example 38, ((2R,3R,4S,5R,6R)-4-(4-(3-fluorophenyl)-1H-1,2,3-triazol-1-yl)-3,5-dihydroxy-6-(hydroxymethyl)tetrahydro-2H-pyran-2-yl)((3aR,6aS)-5-(p-tolyl)hexahydropyrrolo[3,4-c]pyrrol-2(1H)-yl)methanone] showed an IC50 [1] of 400 nM.
Compound COc1ccc(N2C[C@@H]3C[C@H]2CN3C[C@@H]2O[C@H](CO)[C@H](O)[C@H](n3cc(-c4cccc(F)c4)nn3)[C@H]2O)cc1 [Example 29, (2R,3R,4R,5R,6S)-4-(4-(3-fluorophenyl)-1H-1,2,3-triazol-1-yl)-2-(hydroxymethyl)-6-(((1S,4S)-5-(4-methoxyphenyl)-2,5-diazabicyclo[2.2.1]heptan-2-yl)methyl)tetrahydro-2H-pyran-3,5-diol] has an IC50 [1] of 250 nM.
COc1ccc(N2C[C@@H]3C[C@H]2CN3C(=O)[C@@H]2O[C@H](CO)[C@H](O)[C@H](n3cc(-c4cccc(F)c4)nn3)[C@H]2O)cc1 [Example 19, ((2R,3R,4S,5R,6R)-4-(4-(3-fluorophenyl)-1H-1,2,3-triazol-1-yl)-3,5-dihydroxy-6-(hydroxymethyl)tetrahydro-2H-pyran-2-yl)((1S,4S)-5-(4-methoxyphenyl)-2,5-diazabicyclo[2.2.1]heptan-2-yl)methanone] was tested, and the IC50 [1] was 250 nM.
For CO[C@@H]1[C@@H](n2cc(-c3cccc(F)c3)nn2)[C@@H](O)[C@@H](CO)O[C@H]1C(=O)N1C[C@H]2C[C@@H]1CN2c1ccc2c(c1)OCO2 [Example 17], the IC50 (Table 2, read-out: hGal-3 IC50) was 311 nM.
With CS(=O)(=O)Nc1ccc(N2CCN(C(=O)[C@@H]3O[C@H](CO)[C@H](O)[C@H](n4cc(-c5cccc(F)c5)nn4)[C@H]3O)CC2)nc1 [Example 8, N-(6-(4-((2R,3R,4S,5R,6R)-4-(4-(3-fluorophenyl)-1H-1,2,3-triazol-1-yl)-3,5-dihydroxy-6-(hydroxymethyl)tetrahydro-2H-pyran-2-carbonyl)piperazin-1-yl)pyridin-3-yl)methanesulfonamide] the IC50 [1] was 760 nM.
For COc1cc(N2CCN(C(=O)[C@@H]3O[C@H](CO)[C@H](O)[C@H](n4cc(-c5cccc(F)c5)nn4)[C@H]3O)CC2)ccc1O [Example 5], the IC50 (Table 1, read-out: hGal-3 IC50) was 360 nM.
Work on O=C([C@@H]1O[C@H](CO)[C@H](O)[C@H](n2cc(-c3cccc(F)c3)nn2)[C@H]1O)N1CCN(c2ccc(O)cc2)C(CO)C1 (single isomer, unassigned) [Example 35b] yielded an IC50 [1] of 140 nM.
With COc1ccc(N2C[C@H]3C[C@@H]2CN3C(=O)[C@@H]2O[C@H](CO)[C@H](O)[C@H](n3cc(-c4cccc(F)c4)nn3)[C@H]2OC)cc1 [Example 16] the IC50 (Table 2, read-out: hGal-3 IC50) was 530 nM.
COc1ccc(N2C[C@@H]3C[C@H]2CN3C(=O)C[C@@H]2O[C@H](CO)[C@H](O)[C@H](n3cc(-c4cccc(F)c4)nn3)[C@H]2O)cc1 [Example 27, 2-((2S,3R,4R,5R,6R)-4-(4-(3-fluorophenyl)-1H-1,2,3-triazol-1-yl)-3,5-dihydroxy-6-(hydroxymethyl)tetrahydro-2H-pyran-2-yl)-1-((1S,4S)-5-(4-methoxyphenyl)-2,5-diazabicyclo[2.2.1]heptan-2-yl)ethanone] showed an IC50 [1] of 350 nM.
OCC1CN(C[C@@H]2O[C@H](CO)[C@H](O)[C@H](n3cc(-c4cccc(F)c4)nn3)[C@H]2O)CCN1c1ccc(O)cc1 (single isomer, unassigned) [Example 40a] showed an IC50 [1] of 940 nM.
Compound OCC1CN(C[C@@H]2O[C@H](CO)[C@H](O)[C@H](n3cc(-c4cccc(F)c4)nn3)[C@H]2O)CCN1c1ccc(O)cc1 (single isomer, unassigned) [Example 40b] has an IC50 [1] of 1600 nM.
O=C([C@@H]1O[C@H](CO)[C@H](O)[C@H](n2cc(-c3cccc(F)c3)nn2)[C@H]1O)N1CCN(c2ccc(O)cc2)C(CO)C1 (single isomer, unassigned) [Example 35a] gave an IC50 [1] of 1100 nM.
Compound O=C([C@@H]1O[C@H](CO)[C@H](O)[C@H](n2cc(-c3cccc(F)c3)nn2)[C@H]1O)N1C[C@H]2C[C@@H]1CN2c1ccc2c(c1)OCO2 [Example 32] has an IC50 [1] of 180 nM.
For O=C(C[C@@H]1O[C@H](CO)[C@H](O)[C@H](n2cc(-c3cccc(F)c3)nn2)[C@H]1O)N1C[C@@H]2C[C@H]1CN2c1ccc2c(c1)OCO2 [Example 28], the IC50 [1] was 580 nM.
Compound O=C([C@@H]1O[C@H](CO)[C@H](O)[C@H](n2cc(-c3cccc(F)c3)nn2)[C@H]1O)N1CCN(c2ccc(O)cn2)CC1 [Example 2] has an IC50 (Table 1, read-out: hGal-3 IC50) of 395 nM and an IC50 [1] of 270 nM.
With C[C@@H]1CN(c2ccc(O)cc2)[C@@H](C)CN1C(=O)[C@@H]1O[C@H](CO)[C@H](O)[C@H](n2cc(-c3cccc(F)c3)nn2)[C@H]1O (single isomer, unassigned) [Example 37a] the IC50 [1] was 350 nM.
Compound COc1ccc(N2CC3CC2CN3C(=O)C2OC(CO)C(O)C(n3cc(-c4cccc(F)c4)nn3)C2O)cc1OC (stereo not drawn) [Example 22] has an IC50 (Table 3, read-out: hGal-3 IC50) of 522 nM.
For CO[C@@H]1[C@@H](n2cc(-c3cccc(F)c3)nn2)[C@@H](O)[C@@H](CO)O[C@H]1C(=O)N1CCN(c2ccc3c(ccn3C)c2)CC1 [Example 14], the IC50 (Table 2, read-out: hGal-3 IC50) was 410 nM.
CO[C@@H]1[C@@H](n2cc(-c3cccc(F)c3)nn2)[C@@H](O)[C@@H](CO)O[C@H]1C(=O)N1CCN(c2ccc(O)cn2)CC1 [Example 12, ((2R, 3R, 4S, 5R, 6R)-4-(4-(3-fluorophenyl)-1H-1,2,3-triazol-1-yl)-5-hydroxy-6-(hydroxymethyl)-3-methoxytetrahydro-2H-pyran-2-yl)(4-(5-hydroxypyridin-2-yl)piperazin-1-yl) methanone] gave an IC50 [1] of 470 nM.
For COc1ccc(N2CCN(C(=O)[C@@H]3O[C@H](CO)[C@H](O)[C@H](n4cc(-c5cccc(F)c5)nn4)[C@H]3OC)CC2)cc1 [Example 11, ((2R, 3R, 4S, 5R, 6R)-4-(4-(3-fluorophenyl)-1H-1,2,3-triazol-1-yl)-5-hydroxy-6-(hydroxymethyl)-3-methoxytetrahydro-2H-pyran-2-yl)(4-(4-methoxyphenyl)piperazin-1-yl) methanone], the IC50 [1] was 300 nM.
For CS(=O)(=O)Nc1ccc(N2C[C@@H]3C[C@H]2CN3C(=O)[C@@H]2O[C@H](CO)[C@H](O)[C@H](n3cc(-c4cccc(F)c4)nn3)[C@H]2O)cn1 [Example 42], the IC50 [1] was 420 nM.
For C[C@@H]1CN(c2ccc(O)cc2)[C@@H](C)CN1C(=O)[C@@H]1O[C@H](CO)[C@H](O)[C@H](n2cc(-c3cccc(F)c3)nn2)[C@H]1O (single isomer, unassigned) [Example 37b], the IC50 [1] was 310 nM.
O=C([C@@H]1O[C@H](CO)[C@H](O)[C@H](n2cc(-c3cccc(F)c3)nn2)[C@H]1O)N1CCN(c2ccc(O)cc2)CC1CO (single isomer, unassigned) [Example 34b] gave an IC50 [1] of 450 nM.
Work on COc1ccc(N2CC3CC2CN3C(=O)[C@@H]2O[C@H](CO)[C@H](O)[C@H](n3cc(-c4cccc(F)c4)nn3)[C@H]2O)cc1 (stereo in doubt) [Example 31, ((2R,3R,4S,5R,6R)-4-(4-(3-fluorophenyl)-1H-1,2,3-triazol-1-yl)-3,5-dihydroxy-6-(hydroxymethyl)tetrahydro-2H-pyran-2-yl)((1S,4S)-5-(4-methoxyphenyl)-2,5-diazabicyclo[2.2.1]heptan-2-yl)methanone] yielded an IC50 [1] of 220 nM.

Reference: patent US12286424B2, “Small molecule inhibitors of galectin-3” (BRISTOL-MYERS SQUIBB COMPANY, priority 2020, dated 2025)
